{"source": "patent US11534441B2", "about": "“MAP4K1 inhibitors” (Blueprint Medicines Corporation, priority 2020, dated 2022)", "key": {"MAP4K1 (HPK1)": {"target": "MAP4K1 (HPK1) (Homo sapiens (Human), UniProt Q92918)", "sequence (Q92918 whole entry)": "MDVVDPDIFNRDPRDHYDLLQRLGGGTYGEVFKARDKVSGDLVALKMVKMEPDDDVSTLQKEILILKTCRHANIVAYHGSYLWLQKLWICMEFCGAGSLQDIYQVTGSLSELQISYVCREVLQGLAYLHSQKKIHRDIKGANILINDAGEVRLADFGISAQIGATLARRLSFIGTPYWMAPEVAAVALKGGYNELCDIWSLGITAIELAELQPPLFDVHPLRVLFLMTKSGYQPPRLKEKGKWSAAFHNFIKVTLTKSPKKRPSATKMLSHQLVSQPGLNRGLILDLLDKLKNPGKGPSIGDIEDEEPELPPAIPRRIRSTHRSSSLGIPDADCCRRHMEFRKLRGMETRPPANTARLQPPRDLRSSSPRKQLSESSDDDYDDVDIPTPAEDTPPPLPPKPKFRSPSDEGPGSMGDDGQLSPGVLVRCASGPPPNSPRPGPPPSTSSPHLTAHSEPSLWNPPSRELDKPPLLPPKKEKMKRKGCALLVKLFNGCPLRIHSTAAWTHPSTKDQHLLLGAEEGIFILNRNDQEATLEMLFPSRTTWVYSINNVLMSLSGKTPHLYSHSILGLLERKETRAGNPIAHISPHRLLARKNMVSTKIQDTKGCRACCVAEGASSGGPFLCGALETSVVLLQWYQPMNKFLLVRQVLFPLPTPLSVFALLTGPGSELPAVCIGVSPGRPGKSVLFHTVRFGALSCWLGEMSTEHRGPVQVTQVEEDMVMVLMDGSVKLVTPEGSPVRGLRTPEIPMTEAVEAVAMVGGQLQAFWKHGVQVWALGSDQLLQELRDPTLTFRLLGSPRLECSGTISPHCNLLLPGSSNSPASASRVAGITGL", "experiment": "MAP4K1 (HPK1) biochemical enzymatic activity, electrophoretic mobility shift (EZReader 2), ATP at APPKM (26 μM)", "procedure,_shortened": "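Enzyme at 0.1-15 nM was incubated with 1.5 μM fluorescent peptide and ATP at the apparent Km (26 μM) in HEPES pH 7.5, MgCl2, DTT and Brij 35. The reaction ran at 25° C for 60-180 min with a 10-point, 4-fold compound series (1% DMSO) and was stopped with EDTA. Substrate and product peptides were resolved by microfluidic mobility shift, and their peak ratio gave activity.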"}, "expanded CD3+ T cells": {"system": "expanded CD3+ T cells", "experiment": "T cell enhancement of cytokines: IL2 measurement (HTRF) in expanded CD3+ T cells stimulated with anti-CD3/anti-CD28", "format": "cell-based, human", "settings": "IL-2 measurement", "procedure,_shortened": "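Healthy-donor T cells (95-98% CD3+) expanded 10-14 days with IL2 and CD3/CD28 beads, then cryopreserved. 100K cells/well in X-VIVO 10 serum-free medium were stimulated with plate-bound anti-CD3 plus soluble anti-CD28 with compound at various concentrations for 24 h. Secreted IL2 measured by HTRF after 24 h antibody incubation.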"}, "[1]": {"settings": "Homo sapiens, T-cell, class designation"}, "[2]": {"settings": "Homo sapiens, T-cell, numeric value"}}, "note": "pEC50, pIC50: −log10 of the molar value."}
{"smiles": "CC[C@@](C)(N)c1cnc(OC2CC2)c2cnc(Nc3ccc4c(n3)[C@@H](C)C(C)(C)OC4=O)cc12", "note": "[Compound 156]", "values": [{"measurement": "pIC50", "setting": "MAP4K1 (HPK1); class designation", "value": "> 9.52"}, {"measurement": "pIC50", "setting": "MAP4K1 (HPK1); numeric value", "value": 10.00}, {"measurement": "pEC50", "setting": "expanded CD3+ T cells; class designation", "value": "> 7.46"}, {"measurement": "pEC50", "setting": "expanded CD3+ T cells; numeric value", "value": 7.87}]}
{"smiles": "CC[C@](C)(N)c1cnc(OC2CC2)c2cnc(Nc3ccc4c(n3)C(C)(C)[C@@H](C)OC4=O)cc12", "note": "[Compound 157]", "values": [{"measurement": "pIC50", "setting": "MAP4K1 (HPK1); class designation", "value": "> 9.52"}, {"measurement": "pIC50", "setting": "MAP4K1 (HPK1); numeric value", "value": 9.85}, {"measurement": "pEC50", "setting": "expanded CD3+ T cells; class designation", "value": "> 7.46"}, {"measurement": "pEC50", "setting": "expanded CD3+ T cells; numeric value", "value": 7.67}]}
{"smiles": "C[C@@H]1OC(=O)c2ccc(Nc3cc4c(C(C)(C)N)cnc(O[C@H]5CCOC5)c4cn3)nc2[C@H]1C", "note": "[Compound 159]", "values": [{"measurement": "pIC50", "setting": "MAP4K1 (HPK1); class designation", "value": "9.00 to 9.51"}, {"measurement": "pIC50", "setting": "MAP4K1 (HPK1); numeric value", "value": 9.41}, {"measurement": "pEC50", "setting": "expanded CD3+ T cells; [1]", "value": "> 7.46"}, {"measurement": "pEC50", "setting": "expanded CD3+ T cells; [2]", "value": 7.56}]}
{"smiles": "C[C@@H]1OC(=O)c2ccc(Nc3cc4c(C(C)(C)N)cnc(OCC(C)(F)F)c4cn3)nc2[C@H]1C", "note": "[Compound 166]", "values": [{"measurement": "pIC50", "setting": "MAP4K1 (HPK1); class designation", "value": "> 9.52"}, {"measurement": "pIC50", "setting": "MAP4K1 (HPK1); numeric value", "value": 9.60}, {"measurement": "pEC50", "setting": "expanded CD3+ T cells; [1]", "value": "7.35 to 7.45"}, {"measurement": "pEC50", "setting": "expanded CD3+ T cells; [2]", "value": 7.40}]}
{"smiles": "CC1(C)Cc2nc(Nc3cc4c([C@](C)(N)C5CCC5)cnc(OC5CC5)c4cn3)ccc2C(=O)O1", "note": "[Compound 168]", "values": [{"measurement": "pIC50", "setting": "MAP4K1 (HPK1); class designation", "value": "> 9.52"}, {"measurement": "pIC50", "setting": "MAP4K1 (HPK1); numeric value", "value": 9.82}, {"measurement": "pEC50", "setting": "expanded CD3+ T cells; class designation", "value": "7.35 to 7.45"}, {"measurement": "pEC50", "setting": "expanded CD3+ T cells; numeric value", "value": 7.38}]}
{"smiles": "C[C@@H]1OC(=O)c2ccc(Nc3cc4c([C@](C)(N)C5CCC5)cnc(OC5CC5)c4cn3)nc2[C@H]1C", "note": "[Compound 170]", "values": [{"measurement": "pIC50", "setting": "MAP4K1 (HPK1); class designation", "value": "> 9.52"}, {"measurement": "pIC50", "setting": "MAP4K1 (HPK1); numeric value", "value": 10.15}, {"measurement": "pEC50", "setting": "expanded CD3+ T cells; class designation", "value": "> 7.46"}, {"measurement": "pEC50", "setting": "expanded CD3+ T cells; numeric value", "value": 8.17}]}
{"smiles": "CC[C@]1(C)OC(=O)c2ccc(Nc3cc4c(C(C)(C)N)cnc(OCC(F)(F)F)c4cn3)nc21", "note": "[Compound 172]", "values": [{"measurement": "pIC50", "setting": "MAP4K1 (HPK1); class designation", "value": "8.00 to 8.96"}, {"measurement": "pIC50", "setting": "MAP4K1 (HPK1); numeric value", "value": 8.35}, {"measurement": "pEC50", "setting": "expanded CD3+ T cells; class designation", "value": "< 7.26"}, {"measurement": "pEC50", "setting": "expanded CD3+ T cells; numeric value", "value": 7.13}]}
{"smiles": "CC[C@@]1(C)OC(=O)c2ccc(Nc3cc4c(C(C)(C)N)cnc(OCC(F)(F)F)c4cn3)nc21", "note": "[Compound 174]", "values": [{"measurement": "pIC50", "setting": "MAP4K1 (HPK1); class designation", "value": "8.00 to 8.96"}, {"measurement": "pIC50", "setting": "MAP4K1 (HPK1); numeric value", "value": 8.54}, {"measurement": "pEC50", "setting": "expanded CD3+ T cells; class designation", "value": "> 7.46"}, {"measurement": "pEC50", "setting": "expanded CD3+ T cells; numeric value", "value": 7.55}]}
{"smiles": "CC(C)(N)c1cnc(OCC(F)(F)F)c2cnc(Nc3ccnc([C@@H]4CCC[C@@H](O)C4)n3)cc12", "note": "[Compound 176]", "values": [{"measurement": "pIC50", "setting": "MAP4K1 (HPK1); class designation", "value": "9.00 to 9.51"}, {"measurement": "pIC50", "setting": "MAP4K1 (HPK1); numeric value", "value": 9.10}, {"measurement": "pEC50", "setting": "expanded CD3+ T cells; class designation", "value": "> 7.46"}, {"measurement": "pEC50", "setting": "expanded CD3+ T cells; numeric value", "value": 7.68}]}
{"smiles": "C[C@@H]1OC(=O)c2ccc(Nc3cc4c(C(C)(C)N)cnc(OC5CC(F)(F)C5)c4cn3)nc2[C@H]1C", "note": "[Compound 178]", "values": [{"measurement": "pIC50", "setting": "MAP4K1 (HPK1); class designation", "value": "> 9.52"}, {"measurement": "pIC50", "setting": "MAP4K1 (HPK1); numeric value", "value": 9.54}, {"measurement": "pEC50", "setting": "expanded CD3+ T cells; [1]", "value": "< 7.26"}, {"measurement": "pEC50", "setting": "expanded CD3+ T cells; [2]", "value": 7.23}]}
{"smiles": "CC1(C)Cc2nc(Nc3cc4c(C(C)(C)NC5COC5)cnc(OC5CC5)c4cn3)ccc2C(=O)O1", "note": "[Compound 183]", "values": [{"measurement": "pIC50", "setting": "MAP4K1 (HPK1); class designation", "value": "< 8.00"}, {"measurement": "pIC50", "setting": "MAP4K1 (HPK1); numeric value", "value": 7.58}, {"measurement": "pEC50", "setting": "expanded CD3+ T cells; [1]", "value": "> 7.46"}, {"measurement": "pEC50", "setting": "expanded CD3+ T cells; [2]", "value": 8.51}]}
{"smiles": "COC[C@@](C)(N)c1cnc(OC)c2cnc(Nc3ccc4c(n3)[C@@H](C)[C@H](C)OC4=O)cc12", "note": "[Compound 188]", "values": [{"measurement": "pIC50", "setting": "MAP4K1 (HPK1); class designation", "value": "> 9.52"}, {"measurement": "pIC50", "setting": "MAP4K1 (HPK1); numeric value", "value": 10.05}, {"measurement": "pEC50", "setting": "expanded CD3+ T cells; class designation", "value": "> 7.46"}, {"measurement": "pEC50", "setting": "expanded CD3+ T cells; numeric value", "value": 8.17}]}
{"smiles": "COC[C@@](C)(N)c1cnc(OC2CC2)c2cnc(Nc3ccc4c(n3)[C@@H](C)C(C)(C)OC4=O)cc12", "note": "[Compound 189]", "values": [{"measurement": "pIC50", "setting": "MAP4K1 (HPK1); class designation", "value": "> 9.52"}, {"measurement": "pIC50", "setting": "MAP4K1 (HPK1); numeric value", "value": 9.80}, {"measurement": "pEC50", "setting": "expanded CD3+ T cells; class designation", "value": "7.26 to 7.35"}, {"measurement": "pEC50", "setting": "expanded CD3+ T cells; numeric value", "value": 7.34}]}
{"smiles": "CC[C@](C)(N)c1cnc(OC2CC2)c2cnc(Nc3ccc4c(n3)C3(CC3)C(C)(C)OC4=O)cc12", "note": "[Compound 196]", "values": [{"measurement": "pIC50", "setting": "MAP4K1 (HPK1); class designation", "value": "> 9.52"}, {"measurement": "pIC50", "setting": "MAP4K1 (HPK1); numeric value", "value": 10.00}, {"measurement": "pEC50", "setting": "expanded CD3+ T cells; class designation", "value": "> 7.46"}, {"measurement": "pEC50", "setting": "expanded CD3+ T cells; numeric value", "value": 7.72}]}
{"smiles": "CC[C@@H](N)c1cnc(OC)c2cnc(Nc3ccc4c(n3)[C@@H](C)C(C)(C)OC4=O)cc12", "note": "[Compound 204]", "values": [{"measurement": "pIC50", "setting": "MAP4K1 (HPK1); class designation", "value": "> 9.52"}, {"measurement": "pIC50", "setting": "MAP4K1 (HPK1); numeric value", "value": 9.66}, {"measurement": "pEC50", "setting": "expanded CD3+ T cells; class designation", "value": "> 7.46"}, {"measurement": "pEC50", "setting": "expanded CD3+ T cells; numeric value", "value": 7.53}]}
{"smiles": "COC[C@@](C)(N)c1cnc(C)c2cnc(Nc3ccc4c(n3)[C@@H](C)[C@H](C)OC4=O)cc12", "note": "[Compound 205]", "values": [{"measurement": "pIC50", "setting": "MAP4K1 (HPK1); class designation", "value": "9.00 to 9.51"}, {"measurement": "pIC50", "setting": "MAP4K1 (HPK1); numeric value", "value": 9.46}, {"measurement": "pEC50", "setting": "expanded CD3+ T cells; [1]", "value": "< 7.26"}, {"measurement": "pEC50", "setting": "expanded CD3+ T cells; [2]", "value": 6.95}]}
{"smiles": "COC[C@@H](N)c1cnc(OC)c2cnc(Nc3ccc4c(n3)[C@@H](C)C(C)(C)OC4=O)cc12", "note": "[Compound 208]", "values": [{"measurement": "pIC50", "setting": "MAP4K1 (HPK1); class designation", "value": "9.00 to 9.51"}, {"measurement": "pIC50", "setting": "MAP4K1 (HPK1); numeric value", "value": 9.15}, {"measurement": "pEC50", "setting": "expanded CD3+ T cells; class designation", "value": "< 7.26"}, {"measurement": "pEC50", "setting": "expanded CD3+ T cells; numeric value", "value": 7.02}]}
{"smiles": "CC[C@@H](N)c1cnc(C)c2cnc(Nc3ccc4c(n3)[C@@H](C)C(C)(C)OC4=O)cc12", "note": "[Compound 210]", "values": [{"measurement": "pIC50", "setting": "MAP4K1 (HPK1); class designation", "value": "> 9.52"}, {"measurement": "pIC50", "setting": "MAP4K1 (HPK1); numeric value", "value": 9.64}, {"measurement": "pEC50", "setting": "expanded CD3+ T cells; class designation", "value": "< 7.26"}, {"measurement": "pEC50", "setting": "expanded CD3+ T cells; numeric value", "value": 6.75}]}
